Data published in PubChem BioAssay AID2060484 (Molecular Pharmacology Branch, DTP, NCI, 2025).

System: SUM149PT spheroids with HUVEC/MSC, viability
Test: Anticancer human tumor SUM149PT cell line growth inhibition [GQUAD];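 note: spheroids exposed to drugs for seven days before readout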;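 for viability, T/C: percent viability relative to DMSO vehicle control taken as 100%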
Details: for IC50: curve of first compound; for viability, T/C: stronger effect = lower value; active = viability on the fitted dose curve at most 10% of control; inactive = the rest
From the text: DNA G-quadruplex Stabilizer Agents in Combinations in Complex Spheroids
A high-throughput screen of multi-cell type tumor spheroids was designed to identify active combinations of DNA G-quadruplex stabilizer agents and targeted small molecules. Complex spheroids include a stromal component modeled by human endothelial cells (HUVEC) and fibroblasts modeled by human mesenchymal stem cells (MSCs). The concentration ranges selected for each drug and investigational agent were based upon clinically achievable concentrations if the clinical Cmax of the agent was known.
Compounds. The drugs and investigational agents: pidnarulex (CX-5461; NSC782164), APTO-253 (NSC789042), BRACO-19 (NSC847499), peposertib (NSC802822), ceralasertib (NSC780249), elimusertib (NSC800525), camonsertib (NSC841442), AZD-1390 (NSC803789), olaparib (NSC753686), talazoparib (NSC767125), ART-558 (NSC835418), sotorasib (NSC818433), MRTX-1133 (NSC836407), SN-38 (NSC673596), topotecan (NSC609699), etoposide (NSC141540), doxorubicin (NSC123127), gemcitabine (NSC613327), 5-fluorouracil (NSC19893), paclitaxel (NSC125973), vemurafenib (NSC761431), panobinostat (NSC761190), R-306465 (JNJ-16241199; NSC773264), adavosertib (NSC754352), TP-3654 (NSC805149), carboplatin (NSC241240), KSQ-4279 (NSC840948), and staurosporine (NSC755774) were obtained from the National Cancer Institute (NCI) Developmental Therapeutics Program Chemical Repository (34). The FDA-approved anticancer drug set is available from the NCI Developmental Therapeutics Program. […] The stock solutions were prepared in dimethyl sulfoxide (DMSO, Sigma-Aldrich, St. Louis, MO, cat. D2650) at 800-fold the tested concentration and stored at -70 degrees C prior to their use. All drugs and investigational agents were tested over a range starting from a high concentration at or near the clinical Cmax and decreasing in half-log increments. If the clinical Cmax for an agent had not been determined, the highest concentration tested was 10 microM.
2.3 Cell Culture. All cells were maintained in an incubator at 37 degrees C and 5% CO2 with 95% humidity. The PDC lines were cultured according to standard operating procedures established by the NCI PDMR. All PDCs were thawed and cultured in Matrigel-coated flasks prepared with a working solution of 1X Ham's F-12 nutrient mix, without supplementation (Invitrogen, cat. 11765054), 100 U/mL penicillin-streptomycin (Invitrogen, cat. 15140122), and 2.5% Matrigel (Corning Inc., cat. 354248) for the first three passages. The 857933-349-R-J2-PDC line was cultured in 6C/Colon 1B media, which includes advanced DMEM/F-12 (Thermo Fisher Scientific, cat. 12634028), 10 mM HEPES (Thermo Fisher Scientific, cat. 15630080), 1X GlutaMAX supplement (Thermo Fisher Scientific, cat. 35050061), 0.1 mg/mL primocin (InvivoGen, cat. ant-pm-2), 10% defined fetal bovine serum, heat inactivated (HyClone Laboratories Inc., cat. SH30070.03HI), 50% L-WRN conditioned media (ATCC, cat. CRL-3276), 1.25 mM N-Acetyl-L-cysteine (Sigma-Aldrich, cat. A9165), 10 mM nicotinamide (Sigma-Aldrich, cat. N0636), 1X B-27 supplement (Thermo Fisher Scientific, cat. 17504044), 1X N-2 supplement (Thermo Fisher Scientific, cat. 17502048), 10 microM Y-27632 dihydrochloride (Tocris Bioscience, cat. 1254), and 50 ng/mL human EGF recombinant protein (Thermo Fisher Scientific, cat. PHG0311). The 485176-168-R4-J1-PDC line was cultured in Panc media, which includes all 6C/Colon 1B media components plus 100 ng/mL human FGF-10 (Thermo Fisher Scientific, cat. 100-26), 500 nM SB-431542 (Selleckchem, cat. S1067), and gastrin (Tocris, cat. 3006).
[…]

[1] = second compound 0.0316 µM, first compound 0.0316 µM
[2] = second compound 0.0316 µM, first compound 0.1 µM
[3] = second compound 0.0316 µM, first compound 0.316 µM
[4] = second compound 0.0316 µM, first compound 1 µM
[5] = second compound 0.0316 µM, first compound 3.16 µM
[6] = second compound 0.0316 µM, first compound 10 µM
[7] = second compound 0.1 µM, first compound 0.0316 µM
[8] = second compound 0.1 µM, first compound 0.1 µM
[9] = second compound 0.1 µM, first compound 0.316 µM
[10] = second compound 0.1 µM, first compound 1 µM
[11] = second compound 0.1 µM, first compound 3.16 µM
[12] = second compound 0.1 µM, first compound 10 µM
[13] = second compound 0.316 µM, first compound 0.0316 µM
[14] = second compound 0.316 µM, first compound 0.1 µM
[15] = second compound 0.316 µM, first compound 0.316 µM
[16] = second compound 0.316 µM, first compound 1 µM
[17] = second compound 0.316 µM, first compound 3.16 µM
[18] = second compound 0.316 µM, first compound 10 µM
[19] = second compound 1 µM, first compound 0.0316 µM
[20] = second compound 1 µM, first compound 0.1 µM
[21] = second compound 1 µM, first compound 0.316 µM
[22] = second compound 1 µM, first compound 1 µM
[23] = second compound 1 µM, first compound 3.16 µM
[24] = second compound 1 µM, first compound 10 µM
[25] = second compound 3.16 µM, first compound 0.0316 µM
[26] = second compound 3.16 µM, first compound 0.1 µM
[27] = second compound 3.16 µM, first compound 0.316 µM
[28] = second compound 3.16 µM, first compound 1 µM
[29] = second compound 3.16 µM, first compound 3.16 µM
[30] = second compound 3.16 µM, first compound 10 µM
[31] = second compound 10 µM, first compound 0.0316 µM
[32] = second compound 10 µM, first compound 0.1 µM
[33] = second compound 10 µM, first compound 0.316 µM
[34] = second compound 10 µM, first compound 1 µM
[35] = second compound 10 µM, first compound 3.16 µM
[36] = second compound 10 µM, first compound 10 µM

C#Cc1c(F)ccc2cc(O)cc(-c3ncc4c(N5CC6CCC(C5)N6)nc(OCC56CCCN5CC(F)C6)nc4c3F)c12 (centres undefined) + Cc1[nH]c2ccc(F)cc2c1-c1nc2c3cccnc3c3ncccc3c2[nH]1
3.77 µM: IC50 (second compound 0.316 µM)
5.52 µM: IC50 (second compound 0.1 µM)
inactive: viability, T/C [1] 103% | viability, T/C [2] 96.5% | viability, T/C [3] 93% | viability, T/C [4] 72% | viability, T/C [5] 57.6% | viability, T/C [6] 38.4% | viability, T/C [7] 106% | viability, T/C [8] 98.9% | viability, T/C [9] 94.7% | viability, T/C [10] 87.2% | viability, T/C [11] 54.8% | viability, T/C [12] 44.2% | viability, T/C [13] 110% | viability, T/C [14] 96.5% | viability, T/C [15] 83.8% | viability, T/C [16] 74.6% | viability, T/C [17] 48.5% | viability, T/C [18] 37% | viability, T/C [19] 95% | viability, T/C [20] 90% | viability, T/C [21] 87.3% | viability, T/C [22] 76.5% | viability, T/C [23] 55.9% | viability, T/C [24] 42.6% | viability, T/C [25] 96.9% | viability, T/C [26] 85.2% | viability, T/C [27] 83.7% | viability, T/C [28] 76.2% | viability, T/C [29] 52.9% | viability, T/C [30] 45% | viability, T/C [31] 102% | viability, T/C [32] 82.3% | viability, T/C [33] 88.2% | viability, T/C [34] 60.2% | viability, T/C [35] 52.2% | viability, T/C [36] 35.6%
5.61 µM: IC50 (second compound 3.16 µM)
3.43 µM: IC50 (second compound 10 µM)
4.72 µM: IC50 (second compound 0.0316 µM)
5.38 µM: IC50 (second compound 1 µM)

CCCS(=O)(=O)Nc1ccc(F)c(C(=O)c2c[nH]c3ncc(-c4ccc(Cl)cc4)cc23)c1F + Cc1[nH]c2ccc(F)cc2c1-c1nc2c3cccnc3c3ncccc3c2[nH]1
8.19 µM: IC50 (second compound 3.16 µM)
7.25 µM: IC50 (second compound 10 µM)
inactive: viability, T/C [1] 107% | viability, T/C [2] 97.7% | viability, T/C [3] 109% | viability, T/C [4] 101% | viability, T/C [5] 74.7% | viability, T/C [6] 53.3% | viability, T/C [7] 102% | viability, T/C [8] 105% | viability, T/C [9] 102% | viability, T/C [10] 99.8% | viability, T/C [11] 82.6% | viability, T/C [12] 54.9% | viability, T/C [13] 110% | viability, T/C [14] 104% | viability, T/C [15] 105% | viability, T/C [16] 102% | viability, T/C [17] 78.9% | viability, T/C [18] 51.2% | viability, T/C [19] 103% | viability, T/C [20] 107% | viability, T/C [21] 105% | viability, T/C [22] 105% | viability, T/C [23] 79.6% | viability, T/C [24] 47.3% | viability, T/C [25] 98.3% | viability, T/C [26] 92.7% | viability, T/C [27] 102% | viability, T/C [28] 109% | viability, T/C [29] 71.3% | viability, T/C [30] 45.6% | viability, T/C [31] 98.1% | viability, T/C [32] 104% | viability, T/C [33] 102% | viability, T/C [34] 105% | viability, T/C [35] 74.6% | viability, T/C [36] 40.4%
9.08 µM: IC50 (second compound 1 µM)
> 10 µM: IC50 (second compound 0.0316 µM) | IC50 (second compound 0.1 µM) | IC50 (second compound 0.316 µM)
